Experiments:
[1] = molecular target: Nuclear receptor subfamily 4 group A member 2 (Homo sapiens, UniProt P43354); assay: Inverse agonist activity at Gal4-fused human […] Nurr1 LBD transfected in HEK293T cells assessed as suppression of Nurr1 activation incubated for 16 hrs by firefly/renilla based Dual-Glo luciferase assay; format: cell-based
[2] = molecular target: T1, Nuclear receptor subfamily 1 group I member 2 (Homo sapiens, UniProt O75469); assay: Inverse agonist activity at human PXR transfected in HEK293T cells incubated for 16 hrs by firefly/renilla based Dual-Glo luciferase assay; format: cell-based
T1 sequence (O75469 whole entry): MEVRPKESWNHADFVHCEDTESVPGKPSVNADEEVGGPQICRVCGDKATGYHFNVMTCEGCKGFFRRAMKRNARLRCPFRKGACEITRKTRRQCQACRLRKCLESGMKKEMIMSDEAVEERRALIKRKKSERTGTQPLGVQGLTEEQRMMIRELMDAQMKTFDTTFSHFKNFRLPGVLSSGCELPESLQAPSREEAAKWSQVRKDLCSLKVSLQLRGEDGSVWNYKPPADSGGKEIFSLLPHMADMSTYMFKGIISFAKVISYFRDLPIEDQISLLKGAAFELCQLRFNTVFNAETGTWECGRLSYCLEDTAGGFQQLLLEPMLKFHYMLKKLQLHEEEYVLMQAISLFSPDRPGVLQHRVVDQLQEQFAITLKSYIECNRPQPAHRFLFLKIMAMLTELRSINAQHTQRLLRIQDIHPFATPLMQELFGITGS

[3] = molecular target: Nuclear receptor subfamily 4 group A member 3 (Homo sapiens, UniProt Q92570); assay: Inverse agonist activity at human NOR-1 (393 to 626 residues) transfected in HEK293T cells incubated for 16 hrs by firefly/renilla based Dual-Glo luciferase assay; format: cell-based
Nuclear receptor subfamily 4 group A member 3, sequence (Q92570 whole entry, the tested form may be a part): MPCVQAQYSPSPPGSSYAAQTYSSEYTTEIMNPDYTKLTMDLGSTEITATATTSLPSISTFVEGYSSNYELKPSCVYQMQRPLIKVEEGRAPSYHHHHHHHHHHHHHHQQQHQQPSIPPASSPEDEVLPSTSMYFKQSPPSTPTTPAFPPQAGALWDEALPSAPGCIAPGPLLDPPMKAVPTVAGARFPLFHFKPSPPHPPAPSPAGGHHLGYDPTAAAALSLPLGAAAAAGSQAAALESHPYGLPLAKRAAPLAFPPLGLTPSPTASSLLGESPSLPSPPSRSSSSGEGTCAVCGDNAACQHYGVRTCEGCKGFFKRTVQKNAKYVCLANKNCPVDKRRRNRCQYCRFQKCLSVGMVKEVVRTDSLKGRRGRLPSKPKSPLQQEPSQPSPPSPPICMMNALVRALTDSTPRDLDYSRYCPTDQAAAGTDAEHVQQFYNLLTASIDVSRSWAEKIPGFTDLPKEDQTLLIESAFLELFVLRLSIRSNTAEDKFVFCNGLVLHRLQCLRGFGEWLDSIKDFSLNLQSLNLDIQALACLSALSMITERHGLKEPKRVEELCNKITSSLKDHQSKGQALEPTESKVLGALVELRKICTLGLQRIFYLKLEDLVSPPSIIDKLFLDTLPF

[4] = molecular target: T2, Nuclear receptor subfamily 1 group I member 3 (Homo sapiens, UniProt Q14994); assay: Inverse agonist activity at human CAR transfected in HEK293T cells incubated for 16 hrs by firefly/renilla based Dual-Glo luciferase assay; format: cell-based
T2 sequence (Q14994 whole entry): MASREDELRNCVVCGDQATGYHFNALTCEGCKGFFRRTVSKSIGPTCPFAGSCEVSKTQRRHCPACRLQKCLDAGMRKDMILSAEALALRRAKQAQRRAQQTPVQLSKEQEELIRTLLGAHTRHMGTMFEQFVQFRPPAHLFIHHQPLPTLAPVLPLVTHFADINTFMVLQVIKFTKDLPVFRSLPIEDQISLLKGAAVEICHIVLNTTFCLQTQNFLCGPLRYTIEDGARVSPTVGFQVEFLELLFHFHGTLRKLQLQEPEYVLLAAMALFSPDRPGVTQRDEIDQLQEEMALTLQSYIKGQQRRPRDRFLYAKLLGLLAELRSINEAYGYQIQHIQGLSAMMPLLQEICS

in vitro = details: male, Sprague-Dawley, rat, liver microsomes

Nuclear receptor subfamily 4 group A member 2, sequence (P43354 whole entry, the tested form may be a part): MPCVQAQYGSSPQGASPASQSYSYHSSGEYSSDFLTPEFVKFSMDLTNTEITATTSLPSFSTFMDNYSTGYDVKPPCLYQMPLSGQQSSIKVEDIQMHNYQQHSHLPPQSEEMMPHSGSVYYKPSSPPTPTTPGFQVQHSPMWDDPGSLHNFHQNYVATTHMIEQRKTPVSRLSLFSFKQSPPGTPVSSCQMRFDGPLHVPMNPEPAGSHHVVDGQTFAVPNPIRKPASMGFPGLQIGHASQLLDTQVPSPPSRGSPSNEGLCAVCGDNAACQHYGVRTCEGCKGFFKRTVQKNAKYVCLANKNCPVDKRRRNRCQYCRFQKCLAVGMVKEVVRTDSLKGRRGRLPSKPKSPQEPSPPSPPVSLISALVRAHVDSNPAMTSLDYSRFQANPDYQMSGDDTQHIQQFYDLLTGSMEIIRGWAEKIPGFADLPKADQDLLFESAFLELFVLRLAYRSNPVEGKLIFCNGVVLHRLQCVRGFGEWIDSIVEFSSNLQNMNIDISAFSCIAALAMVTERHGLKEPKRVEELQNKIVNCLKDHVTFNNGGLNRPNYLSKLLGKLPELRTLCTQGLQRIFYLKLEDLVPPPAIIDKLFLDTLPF

Activity [2]	IC50 [3]	half-life at 1 h, 10 µM (in vitro)	Compound	other results
Active	3.8 µM	–	O=C(O)/C=C/c1nc(-c2ccccc2)c(-c2ccccc2)o1	–
–	–	30 min	CN(C)C(=O)/C=C/c1nc(-c2ccccc2)c(-c2ccccc2)o1	–

More lines, now with the values behind:

Compound	Activity [2]	IC50 [3]	half-life at 1 h, 10 µM (in vitro)	other results
Cc1cccc(-c2oc(CCC(=O)O)nc2-c2ccccc2)c1	–	–	–	IC50 [1]: > 50 µM
CN(C)C(=O)CCc1nc(-c2ccccc2)c(-c2ccccc2Cl)o1	Active	29 µM	–	Activity [4]: Active
CC(C)NCC(O)COc1cccc2ccccc12 (stereo not drawn) [PROPRANOLOL]	–	–	64 min	–

— ChEMBL document CHEMBL5523770 (J Med Chem, 2024)
